Experimental data: US6603046B1, “Bis-aromatic a,β-unsaturated ketones” (Lica Pharmaceuticals A/S, priority 1992, dated 2003)
Like-named read-outs stand apart in the source and are kept apart here. Marks after values point to notes of the source that are not given here.

Columns and labels:
Eimeria tenella = assay: Anticoccidial activity in chickens infected with Eimeria tenella (Example 28); type: in vivo; conditions: for feed consumption after 7 days of treatment / feed consumption after 14 days of treatment: amount of feed consumed per kg chicken weight gain, doses as Table 28.1; for Weight gain in 7 days after initiation of treatment / Weight gain in 14 days after initiation of treatment: in feed: salinomycin 70 ppm, 2,5 m4′ac and 2,4 mc 30 mg/kg/day, licochalcone A 10 mg/kg/day; for Mortality: number of chickens, groups of 35, licochalcone A 20
P. yoelii strain YM = P. yoelii strain YM infection in mice, parasitemia and mortality (Example 16); type: in vivo, BALB/c mice; conditions: Table 16.12
[1] = test system: chloroquine resistant P. falciparum DD2 strain; assay: In vitro growth of P. falciparum DD2, 3H-hypoxanthine uptake (Example 15); type: cell-based, Plasmodium falciparum; conditions: title: percentage inhibition of 3H-hypoxanthine uptake
human lymphocytes = assay: Lymphocyte Proliferation Assay, 3H-thymidine incorporation (Example 13); conditions: Homo sapiens, Lymphocyte, read-out: inhibition of lymphocytes (lower figure)
P. falciparum = P. falciparum growth in vitro (Table 14.1, strain not stated); type: cell-based; conditions: Plasmodium falciparum; for inhibition at 1 µg/mL: 1 μg/ml; for inhibition at 5 µg/mL: 5 μg/ml; for inhibition at 10 µg/mL: 10 μg/ml
Description: The P. falciparum experimental setup was as described in Example 15.
Testing of the effect of drugs and serum on the in vitro growth of the parasites. The experiments in which compounds were tested for their ability to inhibit parasite growth were performed by a modification of the method originally described by Jensen et al. (1982). Fifty μl of parasitized erythrocytes (parasitemia approximately 1%) in a concentration of 5×10^8/ml and 50 μl of RPMI medium containing different concentrations of the test compound was added to each well of a 96 well flat-bottomed microtiter plate (Nunc). The cultures were then incubated for 48 hours, 24 hours before termination of the culture adding 20 μl of 3-H-hypoxanthine (40 uCi/ml) (New England Nuclear, Boston, Mass., USA) was added to each well. The cultures were then harvested onto glass fiber filters using a Skatron cell harvester (Skatron, Lierbyen, Norway), and the incorporation of 3-H-hypoxanthine into the DNA of dividing parasites was determined by liquid scintillation spectrometry.

L. major promastigotes = L. major promastigotes from 4-days cultures, 3H-thymidine uptake (Examples 5, 14); type: cell-based, Leishmania major; conditions: Leishmania major, Table 14.1, read-out: percentage inhibition of promastigotes (upper figure); for inhibition at 0.5 µg/mL: 0.5 μg/ml; for inhibition at 1 µg/mL: 1 μg/ml; for inhibition at 5 µg/mL: 5 μg/ml; for inhibition at 10 µg/mL: 10 μg/ml
Description: Parasite cultures. The same parasite culture as described in Example 4. Promastigotes were harvested on day 4 of the culture and used for the parasiticidal assay.
Effect on promastigotes. […] Following incubation, […] of ^3H-thymidine was added to each well and further incubated for 18 hrs. Promastigotes were then harvested on filter paper by means of a cell harvester (Skatron, Lierbyen, Norway), extensively washed with distilled water and counted in a scintillation counter (Minaxi Ti-Carb 4000, United Technologies, Packard, USA).
L. major promastigotes. The L. major promastigotes were prepared as described in Example 4 and harvested after 4 days.

[2] = D + 5, i.p. 40 mg/kg twice daily
[3] = D + 6, i.p. 10 mg/kg twice daily
[4] = D + 6, i.p. 20 mg/kg twice daily
[5] = D + 6, i.p. 30 mg/kg twice daily
[6] = D + 6, i.p. 40 mg/kg twice daily
[7] = D + 8, i.p. 20 mg/kg twice daily
[8] = D + 8, i.p. 30 mg/kg twice daily
[9] = D + 10, i.p. 30 mg/kg twice daily
[10] = 0.5 μg/ml, read-out: inhibition of malaria parasites (middle figure) (converted)
[11] = read-out: inhibition of malaria parasites (middle figure) (converted)

Structure (SMILES)	feed consumption after 7 days of treatment (Eimeria tenella)	feed consumption after 14 days of treatment (Eimeria tenella)	Weight gain in 7 days after initiation of treatment (Eimeria tenella)	Weight gain in 14 days after initiation of treatment (Eimeria tenella)	Mortality (Eimeria tenella)	inhibition at 0.5 µg/mL (human lymphocytes)	inhibition at 1 µg/mL (human lymphocytes)	inhibition at 5 µg/mL (human lymphocytes)	inhibition at 10 µg/mL (human lymphocytes)	inhibition at 0.5 µg/mL (P. falciparum; [10])	inhibition at 1 µg/mL (P. falciparum; [11])	inhibition at 5 µg/mL (P. falciparum; [11])	inhibition at 10 µg/mL (P. falciparum; [11])	inhibition at 0.5 µg/mL (L. major promastigotes)	inhibition at 1 µg/mL (L. major promastigotes)	inhibition at 5 µg/mL (L. major promastigotes)	inhibition at 10 µg/mL (L. major promastigotes)	also measured
COc1ccc(/C=C/C(=O)c2ccccc2)c(OC)c1 [2,4mc, 2,4-dimethoxychalcone]	1.30	1.48	380 grams per chicken	803^ grams per chicken	1													% parasitemia (P. yoelii strain YM; [2]): 78%; mortality (no. of dead mice/total no. of tested mice) (P. yoelii strain YM; [2]): 4/5; mortality (no. of dead mice/total no. of tested mice) (P. yoelii strain YM; [3]): (5/5); % parasitemia (P. yoelii strain YM; [4]): 85%; mortality (no. of dead mice/total no. of tested mice) (P. yoelii strain YM; [4]): 4/5; % parasitemia (P. yoelii strain YM; [5]): 29%; mortality (no. of dead mice/total no. of tested mice) (P. yoelii strain YM; [5]): 3/5; mortality (no. of dead mice/total no. of tested mice) (P. yoelii strain YM; [6]): (5/5); mortality (no. of dead mice/total no. of tested mice) (P. yoelii strain YM; [7]): (5/5); % parasitemia (P. yoelii strain YM; [8]): 15%; mortality (no. of dead mice/total no. of tested mice) (P. yoelii strain YM; [8]): 4/5; % parasitemia (P. yoelii strain YM; [9]): 65%; mortality (no. of dead mice/total no. of tested mice) (P. yoelii strain YM; [9]): 4/5; mortality (no. of dead mice/total no. of tested mice) (P. yoelii strain YM; D + 12, i.p. 30 mg/kg twice daily): (5/5)
C=CCOc1ccc(C(=O)/C=C/c2cc(OC)ccc2OC)cc1 [2,5-Dimethoxy-4′-allyloxychalcone, 2,5-dimethoxy-4′-prop-2enyloxychalcone]	1.31	1.54	366 grams per chicken	804^ grams per chicken	2													mortality (no. of dead mice/total no. of tested mice) (P. yoelii strain YM; [3]): (5/5); % parasitemia (P. yoelii strain YM; [4]): 79%; mortality (no. of dead mice/total no. of tested mice) (P. yoelii strain YM; [4]): 4/5; % parasitemia (P. yoelii strain YM; [5]): 62%; mortality (no. of dead mice/total no. of tested mice) (P. yoelii strain YM; [5]): 3/5; mortality (no. of dead mice/total no. of tested mice) (P. yoelii strain YM; [6]): (5/5); mortality (no. of dead mice/total no. of tested mice) (P. yoelii strain YM; [7]): (5/5); % parasitemia (P. yoelii strain YM; [8]): 78%; mortality (no. of dead mice/total no. of tested mice) (P. yoelii strain YM; [8]): 4/5; mortality (no. of dead mice/total no. of tested mice) (P. yoelii strain YM; [9]): (5/5); Growth in % of control (mean ± SEM) ([1]; 0.5 μg/ml): 15.8 ± 13.2%; Growth in % of control (mean ± SEM) ([1]; 1 μg/ml): 12.1 ± 13.7%; Growth in % of control (mean ± SEM) ([1]; 5 μg/ml): 45.3 ± 7.2%; Growth in % of control (mean ± SEM) ([1]; 10 μg/ml): 74.4 ± 4.4%
COc1ccc(/C=C/C(=O)c2ccc(O)cc2)cc1OC [drawing 73]						0%	0.1%	5.2%	27.4%	21%	35.1%	39.9%	73.4%	17.8%	34.3%	65.6%	80%	
C=CCOc1ccc(C(=O)/C=C/c2cc(OC)ccc2OC)cc1 [drawing 78]						5.7%	12.6%	4.3%	2.3%	0%	0%	35%	80%	10 ± 9.7%	15.6 ± 15.1%	63 ± 15.1%	89.4 ± 10.2%	
C=CCOc1ccc(C(=O)/C=C/c2cccc(OC)c2OC)cc1 [drawing 81]						10.8%	14.2%	8.8%	13.8%	0%	17.2%	68.2%	73.1%	13.9 ± 12.9%	20.7 ± 17.1%	82.1 ± 13.6%	98.1 ± 1%	
C=CCOc1ccc(C(=O)/C=C/c2ccc(OC)cc2OC)cc1 [drawing 82]						0%	1.7%	5.9%	5.5%	31.1%	36.5%	74.4%	97.3%	35.4%	62.8%	71.4%	85.4%	
C=CCOc1ccc(C(=O)/C=C/c2c(OC)cccc2OC)cc1 [drawing 83]						1%	1.3%	0%	0%	0%	27.4%	39.7%	65.7%	11.3 ± 9.8%	16.3 ± 12.4%	63.7 ± 24.2%	91.1 ± 4.1%	
C=CCOc1ccc(C(=O)/C=C/c2ccc(OC)c(OC)c2)cc1 [drawing 84]							0%	0%	15.6%		11.4%	22.8%	68%	15.2 ± 11.3%	30.4 ± 23.2%	70.4 ± 15.2%	90.8 ± 9.7%	inhibition at 0.5 µg/mL (P. falciparum; read-out: inhibition of malaria parasites (middle figure)): 2.9%
C=CCOc1ccc(C(=O)/C=C/c2cc(OC)cc(OC)c2)cc1 [drawing 85]						0%	0%	4.6%	25.4%	13.8%	15.3%	74.3%	98.6%	10.6 ± 10.7%	27.6 ± 23.3%	82.8 ± 10%	98.3 ± 0.9%	
CC[C@@H](C(=O)[C@@H](C)[C@@H](O)[C@H](C)[C@@H]1O[C@@H]([C@@H](CC)C(=O)O)CC[C@@H]1C)[C@H]1O[C@]2(C=C[C@@H](O)[C@]3(CC[C@@](C)([C@H]4CC[C@](O)(CC)[C@H](C)O4)O3)O2)[C@H](C)C[C@@H]1C [salinomycin, reference compound]	1.30	1.44	425 grams per chicken	900^a grams per chicken	0													Difference in weight gain to group 5 (control infected) after treatment for 14 days (Eimeria tenella; normal variation ±2%): ^aDifference between groups 1 (standard feed) and 5 (control infected) after treatment for 14 days is 12%.
